Data on 2 compounds can be found in patent US11980616B2, “Treating liver disease by selectively eliminating senescent cells” (Buck Institute for Research on Aging, priority 2014, dated 2024).

The test system of data set [1] is IL-6 positive senescent IMR90 cells. The data set can be described thus: IL-6 immunofluorescence in irradiated senescent IMR90 cells. It is filed as cell-based, human. The method, then: Primary human fibroblast (IMR90) cells were induced to senesce by applying 10 Gy of irradiation. Seven days after irradiation (Day 0), cells were treated with 10 μM Nutlin-3a or vehicle (DMSO) for nine days (Day 9). The drug or vehicle was refreshed every three days. Drug/vehicle was removed at Day 9 and the cells were cultured for an additional three days (Day 12). Cells were then fixed with 4% paraformaldehyde and stained by immunofluorescence with a specific anti-IL-6 antibody (R&D, AF-206-NA). Cells were counterstained with DAPI for nuclear visualization. The percent IL-6 positive cells is illustrated in FIG. 12A. IL-6 positive cells were determined in an unbiased manner using CellProfiler software. Three different cultures were assessed. Non-senescent cells had no detectable cells IL-6 production while senescent cells were about 8% positive at day 9 after vehicle (DMSO) treatment (16 days after irradiation). […] At day 12, 3 days after Nutlin-3a was removed and 19 days after irradiation, IL-6 positive cells in the vehicle control were about 9% and Nutlin3a treated cells were less than 1% positive for IL-6.

The next data set deals with LDLR-/- mice fed a HFD. Kind of data set: Atherosclerosis model, LDLR-/- mice fed a high fat diet. Type of data set: in vivo, mouse. The text has this:
Schematics of two atherosclerosis mouse models are presented in FIGS. 43A-B. The study illustrated in FIG. 43A assessed the extent to which clearance of senescent cells from plaques in LDLR^−/− mice with Nutlin-3A reduces plaque load. Two groups of LDLR^−/− mice (10 weeks) are fed a high fat diet (HFD) (Harlan Teklad TD.88137) having 42% calories from fat, beginning at Week 0 and throughout the study. Two groups of LDLR^−/− mice (10 weeks) are fed normal chow (−HFD). From weeks 0-2, one group of HFD mice and −HFD mice are treated with Nutlin-3A (25 mg/kg, intraperitoneally). One treatment cycle is 14 days treatment, 14 days off. Vehicle is administered to one group of HFD mice and one group of −HFD mice. At week 4 (timepoint 1), one group of mice are sacrificed and to assess presence of senescent cells in the plaques. For the some of the remaining mice, Nutlin-3A and vehicle administration is repeated from weeks 4-6. At week 8 (timepoint 2), the mice are sacrificed and to assess presence of senescent cells in the plaques. The remaining mice are treated with Nutlin-3A or vehicle from weeks 8-10. At week 12 (timepoint 3), the mice are sacrificed and to assess the level of plaque and the number of senescent cells in the plaques.
Plasma lipid levels were measured in LDLR^−/− mice fed a HFD and treated with Nutlin-3A or vehicle at timepoint 1 as compared with mice fed a −HFD (n=3 per group). Plasma was collected mid-afternoon and analyzed for circulating lipids and lipoproteins.
At the end of timepoint 1, LDLR^−/− mice fed a HFD and treated with Nutlin-3A or vehicle were sacrificed (n=3, all groups), and the aortic arches were dissected for RT-PCR analysis of SASP factors and senescent cell markers. Values were normalized to GAPDH and expressed as fold-change versus age-matched, vehicle-treated LDLR^−/− mice on a normal diet.
At the end of timepoint 2, LDLR^−/− mice fed a HFD and treated with Nutlin-3A or vehicle (n=3 for all groups) were sacrificed, and aortic arches were dissected for RT-PCR analysis of SASP factors and senescent cell markers. Values were normalized to GAPDH and expressed as fold-change versus age-matched, vehicle-treated LDLR^−/− mice on a normal diet.
At the end of timepoint 3, LDLR^−/− mice fed a HFD and treated with Nutlin-3A or vehicle (n=3 for all groups) were sacrificed, and aortas were dissected and stained with Sudan IV to detect the presence of lipid. Body composition of the mice was analyzed by MRI, and circulating blood cells were counted by Hemavet. […] As shown in FIGS. 48A-B, the platelet and lymphocyte counts were equivalent between the Nutlin-3A and vehicle treated mice.

Data set [2] has as its system p16-3MR mice treated with paclitaxel. The data set can be described thus: Voluntary exercise (wheel counts) after paclitaxel in p16-3MR mice. It is filed as in vivo, mouse. To be noted: ABT-263 100 mg/kg i.p. daily 7 days; ganciclovir 25 mg/kg i.p. daily 3 days. The method, then:
The capability of a senolytic agent, such as ABT-263, to reduce chemotherapy related side effects, such as fatigue, was examined in p16-3MR transgenic mice. In addition to doxorubicin, paclitaxel also induces cellular senescence when administered to animals. See Example 2 for a description of the p16-3MR transgenic mouse model.
In this experiment, paclitaxel was administered to groups of p16-3mr mice (n=4) three times, every two days. Two days after the third dose of paclitaxel, ganciclovir was administered daily for three days (days 1, 2, and 3) intraperitoneally at 25 mg/kg. ABT-263 (100 mg/kg) was administered intraperitoneally daily for seven days after paclitaxel administration. Two days after the last dose of ABT-263, all groups of animals were housed in metabolic cages (promethion, sable systems international, Las Vegas, NV) to monitor voluntary exercise as determined by wheel counts. Data were collected and analyzed two days later. Clearance of senescent cells by ABT-263 and ganciclovir restored approximately 70% of wheel count reduction caused by chemotherapy treatment.

Data set [3] deals with p16-3MR mice fed a high fat diet. Kind of data set: Glucose tolerance and insulin sensitivity in p16-3MR mice fed a high fat diet. It is filed as in vivo, mouse. As to the method: Groups of p16-3MR mice (n=9) were fed a high fat diet for four months mice or a regular chow diet. Animals were then treated with ganciclovir (3 rounds of 25 mg/kg ganciclovir administered daily for five consecutive days) or vehicle. A glucose bolus was given at time zero, and blood glucose was monitored at 20, 30, 60, and 120 minutes after delivering glucose to determine glucose disposal (see FIG. 69A). […] Insulin sensitivity was also determined (Insulin Tolerance Testing (ITT)). […] Changes in weight, body composition, and food intake were also monitored.

Setting [4] is: 3 rounds of 25 mg/kg daily for five days, vs vehicle.

Take `COc1ccc(C2=N[C@@H](c3ccc(Cl)cc3)[C@@H](c3ccc(Cl)cc3)N2C(=O)N2CCNC(=O)C2)c(OC(C)C)c1` [Nutlin-3a]: the “Percent IL-6 positive cells” value in data set [1] (10 μM, Day 9, vehicle about 8%) was “below 5%”; in data set [1] (Day 12, 3 days after drug removal, vehicle about 9%) it was “less than 1%”. For the same compound, the “Expression of SASP factors and senescent cell markers in aortic arch (RT-PCR)” value in the data set on LDLR-/- mice fed a HFD (25 mg/kg i.p., after 1 treatment cycle, MMP3, MMP13, PAI1, p21, IGFBP2, IL-1A, IL-1B) was “reduced expression of several SASP factors and senescent cell markers”; in the data set on LDLR-/- mice fed a HFD (25 mg/kg i.p., multiple (two) treatment cycles), “reduced expression of most markers”. Besides, the “Reduction of plaques in the descending aorta (Sudan IV)” value in the data set with LDLR-/- mice fed a HFD (25 mg/kg i.p., three treatment cycles, week 12) is around 45%. Besides, in the data set with LDLR-/- mice fed a HFD (three treatment cycles), the “Lymphocyte count vs vehicle” value is “equivalent”. Moreover, in the data set on LDLR-/- mice fed a HFD (three treatment cycles), the “Platelet count vs vehicle” value is listed as “equivalent”.
Take `Nc1nc(O)c2ncn(COC(CO)CO)c2n1` [ganciclovir]: the “Restoration of wheel count reduction caused by chemotherapy” value in data set [2] is listed as “approximately 70%”. In addition, the “Insulin Tolerance Testing: blood glucose” value in data set [3] (0, 14, 30, 60, and 120 minutes) is “greater decrease in blood glucose”. In addition, in data set [3] (setting [4]), the “Glucose tolerance test AUC” value is listed as “significantly lower” and the “Hemoglobin A1c” value is listed as “lower”.
